This note sets out measurements from US20180064681A1, “THERAPEUTIC COMBINATIONS OF CURCUMINOIDS AND FLAVONOIDS” (Primus Pharmaceuticals, Inc., priority 2015, published 2018).

In one experiment the test system is COX-2 mRNA. Format: cell-based, human.
The next experiment relates to NF-κB p65 mRNA. In words: NF-κB (p65) mRNA expression in LPS-stimulated human articular chondrocytes (real-time PCR). Format: cell-based. The settings on record: LPS 2 μg/ml, 4 hours.
In the next experiment the test system is IL-13 mRNA. The experiment is described as follows: IL-13 mRNA expression in LPS-stimulated human articular chondrocytes (real-time PCR). Type of experiment: cell-based. The following applies: LPS 2 μg/ml, 4 hours; curcumin alone 5 or 10 μg/ml.
Another experiment has as its system MMP-3 mRNA. In words: MMP-3 mRNA expression in LPS-stimulated human articular chondrocytes (real-time PCR). The settings on record: LPS 2 μg/ml, 4 hours. Type of experiment: cell-based.
Experiment [1] has as its system IL-1β mRNA. The experiment is described as follows: Median effect / combination index analysis (Chou and Talalay) of reduction of IL-1β mRNA levels in chondrocytes. Type of experiment: cell-based. The settings on record: Homo sapiens, Chondrocyte, read-out: IC50 (Dm) for reduction of IL-1β mRNA levels.
Description: We then plotted the dose-response curve (FIG. 21) as log (fa/fu) with respect to log (D) to generate the Median Effect Plot (FIG. 22).
The CI was calculated as:
For the next experiment, the system named is 5-LOX mRNA. In words: 5-LOX mRNA expression in LPS-stimulated human articular chondrocytes (real-time PCR). The settings on record: LPS 2 μg/ml, 4 hours; curcumin 10 μg/ml. Format: cell-based. Background: In qPCR the cycle at which signal appears reflects the starting amount.
In another experiment the test system is MMP-1 mRNA. The experiment is described as follows: MMP-1 mRNA expression in LPS-stimulated human articular chondrocytes (real-time PCR). Format: cell-based. The settings on record: LPS 2 μg/ml, 4 hours.
Experiment [2] concerns IL-1β mRNA. The experiment is described as follows: IL-1β mRNA expression in LPS-stimulated human articular chondrocytes (real-time PCR). Format: cell-based. The following applies: LPS 2 μg/ml, 4 hours.
Description: (§1) Human articular chondrocytes were cultured in six well culture Petri dishes at a density of 2.5×10^5 cells/well, in a specific chondrocyte growth medium supplemented with 1% antibiotic—antimycotic mixture, at 37° C. in 5% CO2 humidified incubator. The medium was renewed every 2 days. […] Finally, the cells and medium underwent molecular evaluation 4 hours after the treatments.
(§2) Total RNA was isolated from human chondrocytes for reverse-PCR real time evaluation of IL-1beta, COX2, MMP1, MMP-3, MMP9, MMP13, NF-kB (p50), NF-kB (p65), IL-13 and 5-LOX mRNA (Real Time PCR system, mod 7500, Applied Biosystems, Carlsbad, Calif.) using Trizol Reagent Kit (Life Technologies, Monza, Italy). The first strand of cDNA was synthesized from 5.0 μg total RNA using a high capacity cDNA Archive kit (Applied Biosystems, Carlsbad, Calif.). β-actin mRNA was used as an endogenous control to allow the relative quantification. […] The amplified PCR products were quantified by measuring the calculated cycle thresholds (CT) of IL-1beta, COX2, MMP1, MMP-3, MMP9, MMP13, NF-kB (p50), NF-kB (p65), IL-13 and 5-LOX and β-Actin mRNA. The amounts of specific mRNA in samples were calculated using the 2^ΔΔCT method. The mean value of normal chondrocytes target levels became the calibrator and the results are expressed as the n-fold difference relative to normal controls (relative expression levels). […]

Description for 5-LOX mRNA: as §1, §2
Description for COX-2 mRNA: as §1, §2
Description for IL-13 mRNA: as §1, §2
Description for MMP-1 mRNA: as §1, §2
Description for MMP-3 mRNA: as §1, §2
Description for NF-κB p65 mRNA: as §1, §2

The term IC50 denotes the concentration at which inhibition is half-maximal. Turning to `COc1cc(/C=C/C(=O)CC(=O)/C=C/c2ccc(O)c(OC)c2)ccc1O` [curcumin], the “COX-2 mRNA expression” value in the experiment on COX-2 mRNA is “significantly reduced”. Also, the figures for the “NF-κB p65 mRNA expression” value with NF-κB p65 mRNA (curcumin 5 μg/ml) and in the experiment on NF-κB p65 mRNA (curcumin 10 μg/ml alone) were “failed to result in any change” and “more pronounced decrease”, respectively. The “IL-13 mRNA expression” value in the experiment with IL-13 mRNA is “significantly increased in a dose dependent manner”. Also, the results for the “MMP-3 mRNA expression” value in the experiment with MMP-3 mRNA (curcumin 5 μg/ml alone) and with MMP-3 mRNA (curcumin 10 μg/ml) were “significantly reduced” and “additional decrease in a concentration-dependent manner”, respectively. Moreover, in the experiment on IL-1β mRNA [1], the half-inhibitory concentration (IC50) was 14.3 µM. Moreover, the “5-LOX mRNA expression” value in the experiment with 5-LOX mRNA is reported as “blunted”. The figures for the “MMP-1 mRNA expression” value with MMP-1 mRNA (curcumin 5 μg/ml alone) and in the experiment with MMP-1 mRNA (curcumin 10 μg/ml) were “significantly reduced” and “additional decrease in a concentration-dependent manner”, respectively. Besides, the “IL-1β mRNA expression” value in the experiment on IL-1β mRNA [2] (curcumin 5 μg/ml) is given as “significantly blunted”; in the experiment on IL-1β mRNA [2] (curcumin 10 μg/ml alone) it was “further decreased”.
